How the values were obtained:
[1] = target: T1, Cannabinoid receptor 1 (Homo sapiens, UniProt P21554); assay: Antagonist activity at human CB1 receptor expressed in CHO cells assessed as inhibition of CP-55940-induced [3H]arachidonic acid release; assay type: functional, cell-based; settings: read-out: pA2 (converted)
[2] = target: Cannabinoid receptor 2 (Homo sapiens, UniProt P34972); assay: Displacement of [3H]CP-55940 from human CB2 receptor expressed in CHO cells; assay type: cell-based
[3] = target: T1, Cannabinoid receptor 1; assay: Displacement of [3H]CP-55940 from human CB1 receptor expressed in CHO cells; assay type: cell-based
[4] = species: Homo sapiens; assay: Selectivity ratio of Ki for human CB1 receptor to Ki for human CB2 receptor

Sequence of Cannabinoid receptor 2 (P34972 whole entry): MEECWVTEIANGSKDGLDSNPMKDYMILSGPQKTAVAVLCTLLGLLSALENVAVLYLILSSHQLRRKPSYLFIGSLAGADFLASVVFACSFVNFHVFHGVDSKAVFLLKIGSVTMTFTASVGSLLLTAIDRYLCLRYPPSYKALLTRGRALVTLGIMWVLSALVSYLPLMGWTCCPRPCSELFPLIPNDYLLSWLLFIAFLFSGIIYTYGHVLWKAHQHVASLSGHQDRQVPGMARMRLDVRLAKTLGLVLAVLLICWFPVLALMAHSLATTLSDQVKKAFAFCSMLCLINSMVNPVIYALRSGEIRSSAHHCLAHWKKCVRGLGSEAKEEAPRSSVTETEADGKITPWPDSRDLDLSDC
T1 sequence (P21554 whole entry): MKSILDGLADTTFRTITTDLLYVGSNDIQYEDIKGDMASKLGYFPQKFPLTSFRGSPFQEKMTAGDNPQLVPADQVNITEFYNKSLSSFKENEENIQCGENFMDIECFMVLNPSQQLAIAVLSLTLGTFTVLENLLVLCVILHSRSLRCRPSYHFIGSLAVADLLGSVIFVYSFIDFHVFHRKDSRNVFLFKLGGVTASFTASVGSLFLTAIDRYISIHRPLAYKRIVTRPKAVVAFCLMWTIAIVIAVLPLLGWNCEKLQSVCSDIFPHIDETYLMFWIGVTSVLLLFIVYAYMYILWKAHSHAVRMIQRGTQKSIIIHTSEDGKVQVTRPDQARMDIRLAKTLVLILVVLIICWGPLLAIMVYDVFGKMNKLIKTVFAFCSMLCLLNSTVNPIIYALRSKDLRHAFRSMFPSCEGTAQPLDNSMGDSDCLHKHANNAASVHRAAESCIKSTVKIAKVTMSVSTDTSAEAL

Row | Compound | Kb [1] | Ki [2] | Ki [3] | Ratio Ki [4]
1 | CNC(=NS(=O)(=O)N1CCC(F)(F)CC1)N1CCC(c2ccccc2)C(c2ccc(Cl)cc2)=N1 (stereo not given) | 1 nM | 247 nM | 47 nM | 
2 | CN/C(=N\S(=O)(=O)N1CCCCC1)N1CCC(c2ccccc2)C(c2ccc(Cl)cc2)=N1 (stereo not given) |  |  |  | 5
3 | CN=C(NS(=O)(=O)N1CCC(F)(F)CC1)N1CC(c2ccccc2)C(c2ccc(Cl)cc2)=N1 (stereo not given) | 0.631 nM | 219 nM | 12.2 nM | 
4 | CN/C(=N\S(=O)(=O)N1CCC(F)(F)CC1)N1CCC(c2ccccc2)C(c2ccc(Cl)cc2)=N1 (stereo not given) |  |  |  | 5
5 | CNC(=NS(=O)(=O)N1CCCCC1)N1CCC(c2ccccc2)C(c2ccc(Cl)cc2)=N1 (stereo not given) | 2 nM | 571 nM | 74 nM | 
6 | CN/C(=N\S(=O)(=O)c1ccc(Cl)cc1)N1CCC(c2ccccc2)C(c2ccc(Cl)cc2)=N1 (stereo not given) | 1 nM | 318 nM | 43 nM | 5

Source: ChEMBL document CHEMBL1155183, “Synthesis and SAR of 1,4,5,6-tetrahydropyridazines as potent cannabinoid CB1 receptor antagonists” (Bioorg Med Chem Lett, 2009)
